According to ChEMBL document CHEMBL1122846, “Design and synthesis of new transition-state analogue inhibitors of aspartate transcarbamylase” (J Med Chem, 1985):

assay: Compound is evaluated for inhibition of aspartate transcarbamoylase (ATCase).; parameters: species or system Escherichia coli

Row | Compound | Ki [µM]
1 | O=C(O)CC(SCP(=O)(O)O)C(=O)O (configuration not stated) | 1100

assay: Compound is evaluated for inhibition of aspartate transcarbamoylase (ATCase); parameters: species or system Escherichia coli

Row | Compound | Ki [µM]
2 | O=C(O)CC(C[S+]([O-])CP(=O)(O)O)C(=O)O (configuration not stated) | 2300
3 | O=C(O)CC(CS(=O)(=O)CP(=O)(O)O)C(=O)O (configuration not stated) | 650

Next, values leading:

Row | Ki [µM] | Compound
4 | 2 | O=C(O)CC(OC(=O)CP(=O)(O)O)C(=O)O (configuration not stated)
5 | 500 | O=C(O)CC(NS(=O)(=O)CP(=O)(O)O)C(=O)O (configuration not stated)
6 | 430 | O=C(O)CC(CSCP(=O)(O)O)C(=O)O (configuration not stated)
7 | 0.03 | O=C(O)CC(NC(=O)CP(=O)(O)O)C(=O)O (configuration not stated) [SPARFOSIC ACID]
